# Where “and” joins values, the source holds several entries; their conditions need not be identical. Identical values can stand only once.
# Tests used:
# Type in all cases: toxicity, cell-based
# Fibroblast = assay: Incucyte cell viability with human fibroblast; conditions: 10 µM, compound concentration 10 uM
# HEK-293T = assay: Incucyte cell viability with HEK293T; conditions: human, 10 µM, compound concentration 10 uM
# U2OS = assay: Incucyte cell viability with U2OS; conditions: human, 10 µM, compound concentration 10 uM
# Note: unitless GR value; below 1 slowed growth and below 0 cell loss.
Structure (SMILES),"Growth Rate (Fibroblast; 0 h, replicate number 1)","Growth Rate (Fibroblast; 12 h, replicate number 2)","Growth Rate (Fibroblast; 18 h, replicate number 2)","Growth Rate (Fibroblast; 24 h, replicate number 1)","Growth Rate (Fibroblast; 24 h, replicate number 2)","Growth Rate (HEK-293T; 6 h, replicate number 1)","Growth Rate (HEK-293T; 12 h, replicate number 1)","Growth Rate (HEK-293T; 18 h, replicate number 1)","Growth Rate (HEK-293T; 24 h, replicate number 1)","Growth Rate (U2OS; 6 h, replicate number 1)","Growth Rate (U2OS; 6 h, replicate number 2)","Growth Rate (U2OS; 12 h, replicate number 2)","Growth Rate (U2OS; 18 h, replicate number 1)","Growth Rate (U2OS; 24 h, replicate number 1)","Growth Rate (Fibroblast; 18 h, replicate number 1)","Growth Rate (HEK-293T; 12 h, replicate number 2)","Growth Rate (Fibroblast; 6 h, replicate number 1)","Growth Rate (Fibroblast; 12 h, replicate number 1)","Growth Rate (HEK-293T; 24 h, replicate number 2)","Growth Rate (U2OS; 24 h, replicate number 2)",other results
CCCCCCCC/C=C\CCCCCCCC(=O)NCc1ccc(O)c(OC)c1 [OLVANIL],0.97,0.83,0.53,0.91,0.68,-0.94,-0.75,-0.47,-0.25,0.77,0.84,0.94,0.88,0.87,–,–,–,–,–,–,"Growth Rate (Fibroblast; 0 h, replicate number 2): -0.71; Growth Rate (HEK-293T; 0 h, replicate number 2): 0.7"
O=C(O)/C=C/c1ccc(Cn2ccnc2)cc1 [OZAGREL],-1,–,–,0.78,–,–,–,0.96,–,0.91,–,0.94,–,0.94,0.97,0.92,–,–,–,–,"Growth Rate (Fibroblast; 0 h, replicate number 2): -0.85; Growth Rate (HEK-293T; 0 h, replicate number 1): 0.5; Growth Rate (HEK-293T; 0 h, replicate number 2): 0.4; Growth Rate (U2OS; 0 h, replicate number 2): 0.65"
CC(=O)O[C@H]1C(=O)[C@@]2(C)[C@H]([C@H](OC(=O)c3ccccc3)[C@]3(O)C[C@H](OC(=O)[C@H](O)[C@@H](NC(=O)c4ccccc4)c4ccccc4)C(C)=C1C3(C)C)[C@]1(OC(C)=O)CO[C@@H]1C[C@@H]2O [PACLITAXEL],-1,-0.57,-0.67,-0.39,-0.34,-0.33,-0.21,-0.08,0.05,-0.32,-0.43,-0.45,-0.26,-0.07,-0.54,-0.41,-0.64,-0.7,-0.02,-0.18,"Growth Rate (Fibroblast; 6 h, replicate number 2): -0.99; Growth Rate (HEK-293T; 6 h, replicate number 2): -0.69; Growth Rate (HEK-293T; 18 h, replicate number 2): -0.22; Growth Rate (U2OS; 0 h, replicate number 1): -0.26; Growth Rate (U2OS; 0 h, replicate number 2): -0.23; Growth Rate (U2OS; 12 h, replicate number 1): -0.21; Growth Rate (U2OS; 18 h, replicate number 2): -0.43"
CC(=O)c1c(C)c2cnc(Nc3ccc(N4CCNCC4)cn3)nc2n(C2CCCC2)c1=O [PALBOCICLIB],-0.2,–,0.98,0.79,–,0.61,0.77,0.78,0.83 and 0.98,0.72 and 0.58,0.97,–,0.59 and 0.72,0.76 and 0.92,0.87,0.81,0.91,0.92,0.75,–,"Growth Rate (HEK-293T; 0 h, replicate number 1): 0.2; Growth Rate (HEK-293T; 0 h, replicate number 2): 0.78; Growth Rate (HEK-293T; 6 h, replicate number 2): 0.69; Growth Rate (HEK-293T; 18 h, replicate number 2): 0.8; Growth Rate (U2OS; 12 h, replicate number 1): 0.87 and 0.84"
Cl.O=C1c2cccc3c2[C@H](CCC3)CN1[C@@H]1CN2CCC1CC2 [PALONOSETRON HYDROCHLORIDE],–,–,–,–,0.92,0.51,0.41,0.55,0.34,–,–,–,–,0.92,–,0.03,-0.99,–,0.19,0.98,"Growth Rate (Fibroblast; 0 h, replicate number 2): 0.54; Growth Rate (HEK-293T; 0 h, replicate number 1): 0.61; Growth Rate (HEK-293T; 6 h, replicate number 2): -0.08; Growth Rate (HEK-293T; 18 h, replicate number 2): 0.08; Growth Rate (U2OS; 0 h, replicate number 1): -0.52; Growth Rate (U2OS; 0 h, replicate number 2): -0.79"
Cl.Cl.Fc1ccc([C@@H]2CCNC[C@H]2COc2ccc3c(c2)OCO3)cc1.Fc1ccc([C@@H]2CCNC[C@H]2COc2ccc3c(c2)OCO3)cc1.O [PAROXETINE HYDROCHLORIDE],–,0.54,0.59,–,0.62,0.25,–,–,–,0.82,0.89,0.84,–,–,–,–,-0.26,-1,0.86,0.98,"Growth Rate (Fibroblast; 6 h, replicate number 2): -1; Growth Rate (U2OS; 0 h, replicate number 2): -1; Growth Rate (U2OS; 18 h, replicate number 2): 0.89"
CCN1C(=O)N(c2c(F)c(OC)cc(OC)c2F)Cc2cnc3[nH]c(CN4CCOCC4)cc3c21 [PEMIGATINIB],–,0.45,0.53,0.19,0.49,–,0.76,0.68,0.57,0.58,-0.01,0.07,0.5,0.62,0.23,0.59,0.04,0.42,0.3,0.19,"Growth Rate (Fibroblast; 0 h, replicate number 2): 0.11; Growth Rate (Fibroblast; 6 h, replicate number 2): 0.12; Growth Rate (HEK-293T; 0 h, replicate number 1): 0; Growth Rate (HEK-293T; 6 h, replicate number 2): 0.25; Growth Rate (HEK-293T; 18 h, replicate number 2): 0.33; Growth Rate (U2OS; 0 h, replicate number 1): -0.31; Growth Rate (U2OS; 0 h, replicate number 2): -0.02; Growth Rate (U2OS; 12 h, replicate number 1): -0.36; Growth Rate (U2OS; 18 h, replicate number 2): 0.2"
FC(F)(F)c1ccc(CNc2ccc(Cc3c[nH]c4ncc(Cl)cc34)cn2)cn1 [PEXIDARTINIB],-1,0.34,0.9,–,–,–,–,–,–,–,–,–,–,0.95,–,–,0.64,0.87,–,0.98,"Growth Rate (Fibroblast; 6 h, replicate number 2): 0.13; Growth Rate (HEK-293T; 0 h, replicate number 2): -0.38"
CC(=O)NCC(=O)N1[C@@H]2CC[C@H]1c1ccc(Nc3ncc(C(F)(F)F)c(NC4CCC4)n3)cc12 [PF-03814735],-0.26,0.65,0.15,0.86,0.08,-0.95,-0.89,-0.72,-0.57,–,1,-0.14,0.03,0.02,0.52,-0.75,-1,–,-0.39,-0.08,"Growth Rate (HEK-293T; 6 h, replicate number 2): -0.94; Growth Rate (HEK-293T; 18 h, replicate number 2): -0.55; Growth Rate (U2OS; 0 h, replicate number 1): -0.94; Growth Rate (U2OS; 12 h, replicate number 1): -0.05; Growth Rate (U2OS; 18 h, replicate number 2): -0.08"
Cn1nccc1-c1ccc(Sc2cccc(C3(C(N)=O)CCOCC3)c2)cc1 [PF-4191834],–,0.52,0.45,0.22,0.46,-0.02,0.37,0.29,0.31,0.7,0.8,0.79,0.94,0.76,-0.01,-0.18,-0.12,0,0.15,0.93,"Growth Rate (Fibroblast; 0 h, replicate number 2): -0.66; Growth Rate (Fibroblast; 6 h, replicate number 2): 0.25; Growth Rate (HEK-293T; 0 h, replicate number 1): 0.41; Growth Rate (HEK-293T; 6 h, replicate number 2): -0.28; Growth Rate (HEK-293T; 18 h, replicate number 2): 0; Growth Rate (U2OS; 18 h, replicate number 2): 0.88"

# Reference: ChEMBL document CHEMBL5303304, “EUbOPEN Chemogenomics Library - IncuCyte” (2023)
